Experimental data from PMC8496261 (RSC Chemical Biology, 2021).
Numbered stars: 1 amine (or outer) side, 2 acyl side, 3 side chain; on linkers, the order of the positions; unused ones are H or OH. Bridge positions count the residues as written; N and C are the ends. Peptide text beside a SMILES is read from it. * marks the point of attachment. FITC = O=C1OC2(c3ccc(O)cc3Oc3cc(O)ccc32)c2ccc(NC(=S)*)cc21; X1 = Cc1c(C[*:1])n2c(C[*:2])c(C)c(=O)n2c1=O; βAla = NCCC(=O)O

Key:
PCNA (hPCNA) = PCNA (hPCNA) (Homo sapiens, UniProt P12004); experiment: SPR steady state binding affinity for PCNA; settings: for PCNA binding affinity, in words: SPR, 2 compared with peptide 1, 9 compared with peptide 7
Sequence of PCNA (hPCNA) (P12004 whole entry): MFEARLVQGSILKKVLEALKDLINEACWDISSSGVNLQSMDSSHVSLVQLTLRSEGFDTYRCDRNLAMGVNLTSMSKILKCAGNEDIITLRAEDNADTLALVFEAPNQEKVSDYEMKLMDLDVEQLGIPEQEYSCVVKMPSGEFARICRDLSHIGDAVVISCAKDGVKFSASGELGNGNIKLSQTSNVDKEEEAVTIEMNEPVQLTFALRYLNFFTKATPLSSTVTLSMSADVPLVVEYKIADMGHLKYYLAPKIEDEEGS

[1] = test system: MDA-MB-468 breast cancer cells (mKate nuclear label); experiment: Cell uptake assay imaged by confocal fluorescence microscopy; format: cell-based, human; settings: MDA-MB-468 cells, 10 μM peptide, 24 h, fixed

Row | Compound | Kd (PCNA (hPCNA); SEM) | PCNA binding affinity, in words (PCNA (hPCNA)) | intracellular distribution of peptide fluorescence [1]
1 | CSCC[C@H](NC(=O)[C@H](CO)NC(=O)[C@@H](NC(=O)[C@H](CCC(N)=O)NC(=O)[C@@H](N)CCCNC(=N)N)[C@@H](C)O)C(=O)N[C@H](C(=O)N[C@@H](CC(=O)O)C(=O)N[C@@H](Cc1ccccc1)C(=O)N[C@@H](Cc1ccc(O)cc1)C(=O)N[C@@H](Cc1c[nH]cn1)C(=O)N[C@@H](CO)C(=O)N[C@@H](CCCCN)C(N)=O)[C@@H](C)O [Peptide 1] (H-RQTSMTDFYHSK-NH2) | 102 ± 5 nM |  | 
2 | CSCC[C@@H]1NC(=O)[C@H](CO)NC(=O)[C@@H](NC(=O)[C@H](CCC(N)=O)NC(=O)[C@H](CCCNC(=N)N)NC(=O)CCNC(=S)Nc2ccc3c(c2)C(=O)OC32c3ccc(O)cc3Oc3cc(O)ccc32)CSCc2c(C)c(=O)n3c(=O)c(C)c(n23)CSC[C@@H](C(=O)N[C@@H](Cc2ccccc2)C(=O)N[C@@H](Cc2ccc(O)cc2)C(=O)N[C@@H](Cc2c[nH]cn2)C(=O)N[C@@H](CO)C(=O)N[C@@H](CCCCN)C(N)=O)NC(=O)[C@H]([C@@H](C)O)NC1=O [Peptide 9] ({FITC-βAla}-RQCSMTCFYHSK-NH2; linker 3-7 via X1) |  | dramatically decreases the binding affinity | both blue and green fluorescence present throughout the cell cytoplasm
3 | Ac-RQCSMTCFYHSK-NH2 [Peptide 2] |  | significantly reduced PCNA affinity | 
